This is an account of results in ChEMBL document CHEMBL1126508, “Quinazolinones 1: design and synthesis of potent quinazolinone- containing AT1-selective angiotensin-II receptor antagonists” (Bioorg Med Chem Lett, 1993).

A value given as a limit tells only on which side of the number the result lay.

The IC50 is the concentration at which inhibition is half-maximal.

The target in data set [1] is T1, Type-1 angiotensin II receptor (Oryctolagus cuniculus, UniProt P34976).
T1 sequence (P34976 whole entry): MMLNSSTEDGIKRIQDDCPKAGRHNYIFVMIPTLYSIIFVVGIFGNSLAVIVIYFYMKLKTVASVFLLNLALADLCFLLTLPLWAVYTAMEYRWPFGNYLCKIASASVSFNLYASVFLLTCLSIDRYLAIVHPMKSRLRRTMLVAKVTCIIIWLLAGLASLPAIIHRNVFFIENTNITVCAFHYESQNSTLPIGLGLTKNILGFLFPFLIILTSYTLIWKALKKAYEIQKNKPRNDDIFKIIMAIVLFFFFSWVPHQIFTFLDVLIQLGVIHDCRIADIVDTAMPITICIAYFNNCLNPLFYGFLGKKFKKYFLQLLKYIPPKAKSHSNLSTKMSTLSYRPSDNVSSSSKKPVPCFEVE
In words: Binding affinity against Angiotensin II type 1 Receptor in rabbit aortic tissue. In kind it is tissue-based, Aorta.

Data set [2] can be described thus: Tested for Lipophilicity of the compound. The conditions noted are these: octanol/water. In kind it is physicochemical.
Data set [3] concerns the target T1, Type-1 angiotensin II receptor. The data set is described as follows: Ability to displace [125I]Sar1-Ile8-AII from Angiotensin II receptor, type 1 in rabbit aorta in presence of 0.2% bovine serum albumin (BSA) was determined in vitro. In kind it is tissue-based.

In data set [1], `CCCCc1nc2cc3ccccc3cc2c(=O)n1Cc1ccc(-c2ccccc2C(=O)O)cc1` gave a concentration for half-maximal inhibition (IC50) of 380 nM. `CCc1nc2ccc(C)cc2c(=O)n1Cc1ccc(-c2ccccc2-c2nn[nH]n2)cc1`: the half-maximal inhibitory concentration (IC50) in data set [1] was > 100 nM. Molecule `CCCCc1nc2cccc(F)c2c(=O)n1Cc1ccc(-c2ccccc2-c2nn[nH]n2)cc1` registered a half-maximal inhibitory concentration (IC50) in data set [1] of 10 nM.

`CCCc1nc2ccc(C)cc2c(=O)n1Cc1ccc(-c2ccccc2-c2nn[nH]n2)cc1` showed a half-inhibitory concentration (IC50) in data set [1] of 10 nM. In the case of `CCCCCc1nc2ccc(C)cc2c(=O)n1Cc1ccc(-c2ccccc2-c2nnn[nH]2)cc1`, in data set [1], the IC50 turned out to be 6.4 nM. On the same count and under the same terms, the same measure for `CCCCC(=O)Nc1ccc2nc(CCCC)n(Cc3ccc(-c4ccccc4-c4nnn[nH]4)cc3)c(=O)c2c1`: 2 nM; for `CCCCc1nc2c(C)cccc2c(=O)n1Cc1ccc(-c2ccccc2C(=O)O)cc1`: 1400 nM; for `CCCCc1nc2ccc(C)cc2c(=O)n1Cc1ccc(-c2ccccc2C(=O)O)cc1`: 92 nM.

In data set [1], `CCCCc1nc2cc(C)ccc2c(=O)n1Cc1ccc(-c2ccccc2C(=O)O)cc1` displayed an IC50 of 370 nM. Molecule `CCCCc1nc2ccc(I)cc2c(=O)n1Cc1ccc(-c2ccccc2-c2nnn[nH]2)cc1` showed a Lipophilicity in data set [2] of 1.12. Further, the IC50 in data set [3] came out at 12 nM. Turning to `CCCCc1nc2ccc(F)cc2c(=O)n1Cc1ccc(-c2ccccc2-c2nn[nH]n2)cc1`, in data set [1], the IC50 amounted to 26 nM. This molecule yielded a Lipophilicity in data set [2] of 0.14. The like results for `CCCCc1nc2ccccc2c(=O)n1Cc1ccc(-c2ccccc2-c2nn[nH]n2)cc1` were, in that order, 10 nM and 0.

With `CCCCc1nc2ccc(C)cc2c(=O)n1Cc1ccc(-c2ccccc2-c2nnn[nH]2)cc1`, the IC50 in data set [1] was 4 nM. The Lipophilicity in data set [2] is 0.56. `CCCCc1nc2ccc(Cl)cc2c(=O)n1Cc1ccc(-c2ccccc2-c2nn[nH]n2)cc1`: the IC50 in data set [1] turned out to be 29 nM. In data set [2], this molecule came in with a Lipophilicity of 0.71. `CCCCc1nc2cccc(C)c2c(=O)n1Cc1ccc(-c2ccccc2C(=O)O)cc1`: the IC50 in data set [1] came out at 370 nM.

`CCCCc1nc2ccc(NC(C)=O)cc2c(=O)n1Cc1ccc(-c2ccccc2-c2nnn[nH]2)cc1` came in with an IC50 in data set [1] of 9 nM. In addition, the Lipophilicity in data set [2] is -0.97. Turning to `CCCCc1nc2cc(Cl)ccc2c(=O)n1Cc1ccc(-c2ccccc2-c2nn[nH]n2)cc1`, in data set [1], the IC50 is 15 nM. Regarding `CCCCc1nc2ccc(C(F)(F)F)cc2c(=O)n1Cc1ccc(-c2ccccc2-c2nn[nH]n2)cc1`, in data set [2], the Lipophilicity worked out at 0.88. Also, in data set [3], the IC50 is 12 nM.

For the molecule `CCCCc1nc2ccc(OC)cc2c(=O)n1Cc1ccc(-c2ccccc2-c2nnn[nH]2)cc1`, the IC50 in data set [1] came out at 5 nM. Further, the Lipophilicity in data set [2] was -0.02. `CCCCc1nc2ccc([N+](=O)[O-])cc2c(=O)n1Cc1ccc(-c2ccccc2-c2nn[nH]n2)cc1` returned an IC50 in data set [1] of 28 nM. Also, in data set [2], the Lipophilicity is -0.28. As for `CCCCc1nc2cc(OC)c(OC)cc2c(=O)n1Cc1ccc(-c2ccccc2-c2nnn[nH]2)cc1`, in data set [1], the half-maximal inhibitory concentration (IC50) was found to be 13 nM.

With `CCCCc1nc2ccccc2c(=O)n1Cc1ccc(-c2ccccc2C(=O)O)cc1`, the 50% inhibitory concentration (IC50) in data set [1] came to 200 nM.

Turning to `CCCCc1nc2ccc(N)cc2c(=O)n1Cc1ccc(-c2ccccc2-c2nnn[nH]2)cc1`, in data set [1], the IC50 came to 1.3 nM. Besides, in data set [2], the Lipophilicity is given as -1.23.
